Data from patent US4582821A, “Inhibition of cyclic nucleotide independent protein kinases” (E. I. Du Pont de Nemours and Company, priority 1983, dated 1986).
Peptide text beside a SMILES is read from it. * marks the point of attachment. Cbz = O=C(OCc1ccccc1)*; CH2Cl = ClC*

What was measured:
[1] = test system: A-431 plasma membrane extracts (EGF-mediated protein phosphorylation); assay: Protein phosphorylation in solubilized A-431 plasma membrane extracts, with or without EGF; type: biochemical, human; conditions: 477 nmol/mg protein; for EGF Added (pmol 32P incorporated/min/mg protein): control 96.2; for No EGF Added (pmol 32P incorporated/min/mg protein): control 21.6
Procedure: The capacity of certain peptide halomethyl ketones to inhibit protein phosphorylation is illustrated by Examples 1-8, below, in which solubilized plasma membranes prepared from A-431 human epidermoid carcinoma cells were incubated with [γ-^32 P] ATP in the presence of EGF.
A-431 human epidermoid carcinoma cells were grown in Dulbecco's modified Eagle's medium containing 5% fetal calf serum. Plasma membranes were isolated by a method substantially similar to that described by Thom et al., Biochem J. 168:187 (1977), and kept at -70°. Solubilization of plasma membranes was performed substantially as described by Cohen et al., J. Biol. Chem. 255:4834 (1980). In this procedure, 7.5 mg/mL protein was solubilized with 5% Triton X-100 (octylphenol), 10% glycerol, and 20 mM Hepes buffer (N-2-hydroxyethylpiperazine-N^1 -2-ethanesulfonic acid), pH 7.4. This mixture was incubated for 20 minutes at about 23°, followed by centrifugation at 100,000 xg for 60 minutes.
(§1) Protein phosphorylation assays were conducted substantially as described by Carpenter et al., J. Biol. Chem. 254:4884 (1979). Each assay mixture contained, in a final volume of 70 μL: 20 mM Hepes, pH 7.4, 0.01% bovine serum albumin (BSA), 15-150 μg protein in Triton extract, 100 ng EGF, 1 mM MnCl2 and 10-20 μM [γ-^32 P] ATP (2-4 μCi). Peptide halomethyl ketones were added as solutions in ethanol; an equivalent volume of ethanol was added to controls. Assay mixtures were incubated at about 23° for ten minutes, with or without added EGF. Mixtures were then held at 0° for ten minutes before initiation of phosphorylation by addition of 15 μM γ-^32 P) ATP (2 μCi). Reactions were terminated after 3 minutes at 0° by applying an aliquot of the assay mixture to a Whatman 3MM filter paper (2×2 cm), which was then suspended in ice-cold 10% trichloroacetic acid containing 10 mM pyrophosphate. This suspension was gently shaken for a period of 1 hour, during which the trichloroacetic acid/pyrophosphate mixture was changed three times. Finally, the filter papers were dried and radioactivity measured by scintillation counting.

A-431 cell EGF receptor = target: T1, A-431 cell EGF receptor (Homo sapiens, UniProt P00533); assay: Protein phosphorylation of A-431 cell membrane EGF receptors (intact membranes, EGF present); type: biochemical; conditions: 600 nmoles/mg protein, intact A-431 membranes
T1 construct: intact A-431 cell membranes were employed, rather than solubilized extracts; endogenous in cells; host or cells: A-431 human epidermoid carcinoma cells (plasma membranes)
T1 sequence (P00533 25-1210): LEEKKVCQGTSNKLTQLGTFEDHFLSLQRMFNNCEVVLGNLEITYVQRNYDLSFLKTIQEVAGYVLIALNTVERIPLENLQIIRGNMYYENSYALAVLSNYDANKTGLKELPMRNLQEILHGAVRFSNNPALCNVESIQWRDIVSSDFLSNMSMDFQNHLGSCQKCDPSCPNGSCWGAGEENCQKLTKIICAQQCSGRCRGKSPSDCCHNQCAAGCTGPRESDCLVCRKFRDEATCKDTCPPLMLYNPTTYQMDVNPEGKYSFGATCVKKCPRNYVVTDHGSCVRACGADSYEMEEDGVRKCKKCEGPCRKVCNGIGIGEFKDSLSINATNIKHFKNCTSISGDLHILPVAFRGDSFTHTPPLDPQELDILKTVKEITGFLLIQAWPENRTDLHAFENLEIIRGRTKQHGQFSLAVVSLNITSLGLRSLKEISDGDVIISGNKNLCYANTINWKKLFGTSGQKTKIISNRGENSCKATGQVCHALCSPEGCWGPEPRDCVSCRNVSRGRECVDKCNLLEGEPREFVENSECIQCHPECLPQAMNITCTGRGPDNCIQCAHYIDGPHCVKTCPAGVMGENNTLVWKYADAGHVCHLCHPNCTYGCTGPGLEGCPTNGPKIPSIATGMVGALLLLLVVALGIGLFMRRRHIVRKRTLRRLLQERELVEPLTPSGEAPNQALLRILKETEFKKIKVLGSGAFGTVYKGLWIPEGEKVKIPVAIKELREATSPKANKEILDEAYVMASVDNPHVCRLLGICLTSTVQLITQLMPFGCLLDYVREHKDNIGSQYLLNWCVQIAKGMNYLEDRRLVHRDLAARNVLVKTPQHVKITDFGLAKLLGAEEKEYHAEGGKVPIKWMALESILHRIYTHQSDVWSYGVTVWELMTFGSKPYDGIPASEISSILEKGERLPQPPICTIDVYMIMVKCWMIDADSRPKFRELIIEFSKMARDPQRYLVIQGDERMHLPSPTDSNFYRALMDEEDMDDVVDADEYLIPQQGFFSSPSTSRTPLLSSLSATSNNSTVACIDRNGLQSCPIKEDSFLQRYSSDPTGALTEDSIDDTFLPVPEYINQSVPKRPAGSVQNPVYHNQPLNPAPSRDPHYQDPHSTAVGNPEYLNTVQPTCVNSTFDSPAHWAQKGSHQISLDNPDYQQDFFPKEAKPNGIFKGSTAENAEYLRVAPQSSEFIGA
Procedure: as §1
Assays were conducted substantially as described above, except intact A-431 cell membranes were employed, rather than solubilized extracts, and assay mixtures contained 1 mM ouabain. In these Examples, reactions were permitted to proceed for 6 minutes. This technique is substantially similar to that disclosed by Navarro et al., Biochemistry, 21:6138 (1982).

[2] = test system: lymphoma cell line MOLT-4; assay: Tumor cell line growth inhibition, MOLT-4; type: cell-based
Procedure: (§2) In this series of experiments, the tumor cell growth inhibitory capacity of various peptide halomethyl ketones was tested against lymphoma cell lines YAC-1 and MOLT-4, and against an erythroleukemia cell line, K-562. The lymphoma cell line YAC-1 is described by Kiessling, et al., Eur. J. Immunol. 5:112 (1975), and MOLT-4 is described by Minowada, et al., J. Natl. Cancer Inst. 49:891 (1972) and Nilsson, et al., Int. J. Cancer 15:321 (1975). The erythroleukemia cell line K-562 is described by Lozzio, et al., Leuk. Res. 3:363 (1979). In these experiments, cells were grown on standard media as 10 mL suspension cultures. Initial cell density was 10^5 cells/mL. At day 0, test compounds were introduced in ethanol; control cultures received an equal volume of ethanol. Cells were counted at the times indicated.

[3] = test system: erythroleukemia cell line K-562; assay: Tumor cell line growth inhibition, K-562; type: cell-based
Procedure: as §2

lymphoma cell line YAC-1 = assay: Tumor cell line growth inhibition, YAC-1; type: cell-based
Procedure: as §2

| Compound | % inhibition (A-431 cell EGF receptor) | % Growth Relative to Control Cultures ([2]; 0.4 μg/mL, day 1) | % Growth Relative to Control Cultures ([2]; 0.4 μg/mL, day 2) | % Growth Relative to Control Cultures ([2]; 2.0 μg/mL, day 1) | % Growth Relative to Control Cultures ([2]; 2.0 μg/mL, day 2) | % Growth Relative to Control Cultures ([2]; 2.0 μg/mL, day 3) | % Growth Relative to Control Cultures ([2]; 2.0 μg/mL, day 4) | % Growth Relative to Control Cultures ([2]; 10. μg/mL, day 2) | % Growth Relative to Control Cultures ([2]; 10. μg/mL, day 3) | % Growth Relative to Control Cultures ([2]; 10. μg/mL, day 4) | % Growth Relative to Control Cultures ([2]; 10. μg/mL, day 7) | % Growth Relative to Control Cultures ([3]; 2.0 μg/mL, day 1) | % Growth Relative to Control Cultures ([3]; 2.0 μg/mL, day 2) | % Growth Relative to Control Cultures ([3]; 2.0 μg/mL, day 3) | % Growth Relative to Control Cultures ([3]; 2.0 μg/mL, day 4) | % Growth Relative to Control Cultures ([3]; 10. μg/mL, day 1) | % Growth Relative to Control Cultures ([3]; 10. μg/mL, day 2) | % Growth Relative to Control Cultures ([3]; 10. μg/mL, day 3) | % Growth Relative to Control Cultures ([3]; 10. μg/mL, day 4) | % Growth Relative to Control Cultures ([3]; 10. μg/mL, day 7) | other results |
| --- | --- | --- | --- | --- | --- | --- | --- | --- | --- | --- | --- | --- | --- | --- | --- | --- | --- | --- | --- | --- | --- |
| CC(C)C[C@H](NC(=O)OC(C)(C)C)C(=O)CCl [Boc-LeuCH2 Cl] | 7% | 73% | 86% | 47% | 28% | 10% | 11% | 38% | 3% | 3% | 4% | 17% | 31% | 8% | 15% | 8% | 17% | 3% | 6% | 3% | % inhibition, EGF Added [1]: 28%; EGF Added (pmol 32P incorporated/min/mg protein) [1]: 69.0 pmol^32 P incorporated/min/mg; % inhibition, No EGF Added [1]: 48%; No EGF Added (pmol 32P incorporated/min/mg protein) [1]: 11.3 pmol^32 P incorporated/min/mg; % Growth Relative to Control Cultures ([2]; 0.4 μg/mL, day 3): 73%; % Growth Relative to Control Cultures ([2]; 0.4 μg/mL, day 7): 86%; % Growth Relative to Control Cultures ([2]; 2.0 μg/mL, day 7): 63%; % Growth Relative to Control Cultures ([3]; 0.4 μg/mL, day 1): 47%; % Growth Relative to Control Cultures ([3]; 0.4 μg/mL, day 3): 53%; % Growth Relative to Control Cultures ([3]; 2.0 μg/mL, day 7): 37% |
| CC(C)(C)OC(=O)N[C@@H](Cc1ccc(O)cc1)C(=O)CCl [Boc-TyrCH2 Cl] | 34% | 80% |  | 56% | 31% | 17% | 16% | 19% | 8% | 3% | 0% | 81% | 23% | 15% | 19% | 64% | 7% | 2% | 2% | 0% | % inhibition, EGF Added [1]: 45%; EGF Added (pmol 32P incorporated/min/mg protein) [1]: 53.0 pmol^32 P incorporated/min/mg; % inhibition, No EGF Added [1]: 64%; No EGF Added (pmol 32P incorporated/min/mg protein) [1]: 7.8 pmol^32 P incorporated/min/mg; % Growth Relative to Control Cultures ([2]; 0.4 μg/mL, day 3): 85%; % Growth Relative to Control Cultures ([2]; 0.4 μg/mL, day 4): 69%; % Growth Relative to Control Cultures ([2]; 2.0 μg/mL, day 7): 31%; % Growth Relative to Control Cultures ([2]; 10. μg/mL, day 1): 39%; % Growth Relative to Control Cultures ([3]; 2.0 μg/mL, day 7): 44% |
| CC(C)C[C@H](NC(=O)[C@H](C)NC(=O)[C@H](CO)NC(=O)[C@H](Cc1ccccc1)NC(=O)OCc1ccccc1)C(=O)CCl [Z--Phe-Ser-Ala-LeuCH2 Cl, Z-Phe-Ser-Ala-LeuCH2 Cl] (Cbz-FSAL-CH2Cl) | 44% |  | 80% |  | 85% |  |  | 16% | 4% | 2% | 11% |  | 72% |  |  | 44% | 4% | 2% | 4% | 7% | % Growth Relative to Control Cultures (lymphoma cell line YAC-1; 0.4 μg/mL, day 1): 58%; % Growth Relative to Control Cultures (lymphoma cell line YAC-1; 0.4 μg/mL, day 2): 49%; % Growth Relative to Control Cultures (lymphoma cell line YAC-1; 2.0 μg/mL, day 1): 53%; % Growth Relative to Control Cultures (lymphoma cell line YAC-1; 2.0 μg/mL, day 2): 53%; % Growth Relative to Control Cultures (lymphoma cell line YAC-1; 2.0 μg/mL, day 7): 76%; % Growth Relative to Control Cultures (lymphoma cell line YAC-1; 10. μg/mL, day 1): 63%; % Growth Relative to Control Cultures (lymphoma cell line YAC-1; 10. μg/mL, day 2): 21%; % Growth Relative to Control Cultures (lymphoma cell line YAC-1; 10. μg/mL, day 3): 16%; % Growth Relative to Control Cultures (lymphoma cell line YAC-1; 10. μg/mL, day 4): 16%; % Growth Relative to Control Cultures (lymphoma cell line YAC-1; 10. μg/mL, day 7): 17%; % Growth Relative to Control Cultures ([2]; 10. μg/mL, day 1): 64%; % Growth Relative to Control Cultures ([3]; 0.4 μg/mL, day 1): 82%; % Growth Relative to Control Cultures ([3]; 0.4 μg/mL, day 2): 66% |
| CC(C)C[C@H](NC(=O)[C@H](CO)NC(=O)CNC(=O)[C@H](Cc1ccccc1)NC(=O)OCc1ccccc1)C(=O)CCl [Z--Phe-Gly-Ser-LeuCH2 Cl, Z-Phe-Gly-Ser-LeuCH2 Cl] (Cbz-FGSL-CH2Cl) | 54% | 77% | 40% | 42% | 27% | 87% | 74% | 17% | 76% | 29% | 49% | 66% | 13% | 38% | 40% |  | 14% | 17% | 20% | 65% | % Growth Relative to Control Cultures (lymphoma cell line YAC-1; 0.4 μg/mL, day 2): 63%; % Growth Relative to Control Cultures (lymphoma cell line YAC-1; 0.4 μg/mL, day 3): 68%; % Growth Relative to Control Cultures (lymphoma cell line YAC-1; 0.4 μg/mL, day 4): 74%; % Growth Relative to Control Cultures (lymphoma cell line YAC-1; 0.4 μg/mL, day 7): 61%; % Growth Relative to Control Cultures (lymphoma cell line YAC-1; 2.0 μg/mL, day 2): 80%; % Growth Relative to Control Cultures (lymphoma cell line YAC-1; 2.0 μg/mL, day 3): 60%; % Growth Relative to Control Cultures (lymphoma cell line YAC-1; 2.0 μg/mL, day 4): 66%; % Growth Relative to Control Cultures (lymphoma cell line YAC-1; 2.0 μg/mL, day 7): 75%; % Growth Relative to Control Cultures (lymphoma cell line YAC-1; 10. μg/mL, day 1): 62%; % Growth Relative to Control Cultures (lymphoma cell line YAC-1; 10. μg/mL, day 2): 40%; % Growth Relative to Control Cultures (lymphoma cell line YAC-1; 10. μg/mL, day 4): 40%; % Growth Relative to Control Cultures (lymphoma cell line YAC-1; 10. μg/mL, day 7): 64%; % Growth Relative to Control Cultures ([2]; 10. μg/mL, day 1): 38%; % Growth Relative to Control Cultures ([3]; 0.4 μg/mL, day 2): 28%; % Growth Relative to Control Cultures ([3]; 0.4 μg/mL, day 3): 27%; % Growth Relative to Control Cultures ([3]; 0.4 μg/mL, day 4): 49%; % Growth Relative to Control Cultures ([3]; 0.4 μg/mL, day 7): 81% |
